The values that follow come from patent US8153784B2, “Imaging of enzyme activity” (The General Hospital Corporation, priority 2004, dated 2012).

“And” between values parts separate entries of the source, which are not always exact repeats. Equal values may be shown once.

Assay [1] addresses T1, human myeloperoxidase (MPO) (Homo sapiens, UniProt P05164).
T1 construct: purchased BioDesign Inc
Put plainly: Pseudo-first-order rate constants of MPO-mediated conversion (relaxation times over time, 0.47 T). Format: biochemical. As to the method:
(§1) Kinetics of the samples were observed by measuring T1 and T2 at 0.47 T and 40° C. of the samples over at least a 24 hour period. At different time points, 1 M of sodium azide (final concentration=0.17 M) was added to stop the enzyme mediated reaction. The resultant progress curve was fitted with an empirical mathematical model and analyzed according to the Guggenheim method to obtain the pseudo-first-order rate constants (Guggenheim E A. Philos. Mag. 1926; 2:538).
(§2) An important property of a suitable substrate for an enzyme is the kinetics of enzymatic reaction. To determine the utility of the paramagnetic complexes as suitable substrates for human myeloperoxidase (MPO), we measured the pseudo-first-order rate constant of these substrates in MPO, and compared to the same substrates' reactions in Horse Radish Peroxidase (HRP) by monitoring the changes in relaxation time over time. […] The results shown were obtained using T1 measurements. T2 measurements yielded nearly identical results. The results are presented as mean±SD. N/A=not applicable.

In assay [2] the target is T2, MPO (Homo sapiens, UniProt P05164).
T2 construct: purchased BioDesign Inc
T2 sequence (P05164 279-745 limits assumed): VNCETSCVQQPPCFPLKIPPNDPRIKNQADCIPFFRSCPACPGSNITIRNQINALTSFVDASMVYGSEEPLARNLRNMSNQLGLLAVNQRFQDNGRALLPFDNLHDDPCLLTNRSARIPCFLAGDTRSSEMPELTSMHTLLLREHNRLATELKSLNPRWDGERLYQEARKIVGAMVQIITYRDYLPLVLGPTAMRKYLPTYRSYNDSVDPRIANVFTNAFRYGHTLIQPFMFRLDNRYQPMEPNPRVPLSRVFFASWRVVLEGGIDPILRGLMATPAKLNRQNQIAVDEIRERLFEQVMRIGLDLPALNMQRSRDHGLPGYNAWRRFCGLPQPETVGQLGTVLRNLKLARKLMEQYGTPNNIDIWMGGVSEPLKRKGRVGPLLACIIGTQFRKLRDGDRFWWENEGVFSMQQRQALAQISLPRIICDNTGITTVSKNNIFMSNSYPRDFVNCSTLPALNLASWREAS
T2 sequence (P05164 165-273 limits assumed): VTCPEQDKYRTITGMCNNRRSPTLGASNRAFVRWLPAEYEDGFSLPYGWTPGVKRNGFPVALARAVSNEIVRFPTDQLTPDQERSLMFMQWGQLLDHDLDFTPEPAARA
Put plainly: MR imaging at 1.5 T of substrate solutions with MPO. Format: biochemical. As to the method: Standard 96-well plates were prepared and imaged on a 1.5 T whole body clinical General Electric Signa MRI scanner utilizing a standard 3 inch surface coil. Inversion recovery sequences were used to measure T1 relaxation and spin echo sequences were utilized to measure T2 relaxation. T2 weighted images were obtained with TR=5000 ms and TE=100 ms with a fast spin echo sequence. T1 weighted images were obtained with spin echo sequences with the following parameters: TR=100, 200, 350, or 500, TE=11. For the Matrigel™ experiments, a relatively T2 weighted image was obtained at TR=300 ms and TE=200 ms. Single-exponential models were used to obtain T1 and T2. The relaxivities were computed by normalizing relaxation rates to the concentration of gadolinium in each sample, obtained by inductive coupled plasma (ICP) analysis performed by Galbraith Laboratories.
Because of the relatively higher relaxivity and relatively faster kinetics with MPO, 5-HT-DOTA was chosen for further evaluation by imaging on a clinical 1.5 T MRI scanner. FIGS. 6A-6F and FIGS. 7A-7F illustrate the relative signal changes for typical T1- and T2-weighted images in aqueous solutions with MPO. […] An approximately 40% signal difference was identified at 1300-2000 U (FIGS. 6C-6D), in keeping with the amount of relaxivity shortening found in the relaxation experiments ˜70%).

Assay [3] deals with T3, horseradish peroxidase (HRP) (Armoracia rusticana, UniProt P00433).
T3 sequence (P00433 31-338): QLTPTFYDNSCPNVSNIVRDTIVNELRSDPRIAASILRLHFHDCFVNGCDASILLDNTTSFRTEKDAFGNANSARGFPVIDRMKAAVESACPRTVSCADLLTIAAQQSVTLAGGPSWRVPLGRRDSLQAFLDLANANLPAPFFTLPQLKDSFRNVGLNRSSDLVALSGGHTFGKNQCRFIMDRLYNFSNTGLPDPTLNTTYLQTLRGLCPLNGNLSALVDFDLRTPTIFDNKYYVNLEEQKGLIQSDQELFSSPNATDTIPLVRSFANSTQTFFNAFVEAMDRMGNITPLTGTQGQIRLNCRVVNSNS
Put plainly: Pseudo-first-order rate constants of HRP-mediated conversion (relaxation times over time, 0.47 T). Format: biochemical, horseradish. More on the design: purchased Sigma-Aldrich type XII (catalogue number not given). How it is done:
as §1, §2

T1 sequence (P05164 279-745 limits assumed): as the sequence (P05164 279-745 limits assumed) above
T1 sequence (P05164 165-273 limits assumed): as the sequence (P05164 165-273 limits assumed) above

As for `CC(C(=O)NCC(=O)NCCc1c[nH]c2ccc(O)cc12)N1CCN(CC(=O)[O-])CCN(CC(=O)[O-])CCN(CC(=O)[O-])CC1.[Gd+3]` (stereo not drawn) [5-HT-DOTA(Gd), Glycylmethyl DOTA(Gd) 5-Hydroxytryptamide], the “fraction of the final relaxation rate obtained within the first 5 minutes” value in assay [1] and in assay [3] was “more than 80%” throughout. Further, the “Pseudo first-order rate constant” value in assay [1] (from T1 measurements, mean±SD) was 0.0063 s⁻¹; in assay [3] (from T1 measurements, mean±SD), 0.01 s⁻¹. In addition, in assay [2], the “MPO activity giving visible imaging signal changes” value is 250 U and 250-650 U. Further, the “signal difference between MPO-converted product and substrate solution” value in assay [2] (1300-2000 U) is “approximately 40%”.
